Experimental data published in ChEMBL document CHEMBL5143625, “Isolation, synthesis and bioactivity evaluation of isoquinoline alkaloids from Corydalis hendersonii Hemsl. against gastric cancer in vitro and in vivo” (Bioorg Med Chem, 2022).
Calls of active or inactive are those of the source. The rule behind the calls is not given here.

Key:
MGC-803 [1] = experiment: Induction of apoptosis in human MGC-803 cells assessed as increase in apoptotic cells at 1.25 to 10 uM after 48 hr by AnnexinV-FITC/PI staining based flow cytometric analysis (reference value: 2.71%); format: functional, cell-based; conditions: dose 1.25-10 µM, DDE = dose-dependent effect
HGC-27 [2] = experiment: Induction of apoptosis in human HGC-27 cells assessed as increase in apoptotic cells at 2 to 16 uM after 48 hr by AnnexinV-FITC/PI staining based flow cytometric analysis (reference value: 5.03%); format: functional, cell-based; conditions: dose 2-16 µM, DDE = dose-dependent effect
[3] = Toxicity in immunodeficient nude mouse xenografted with human MGC-803 cells assessed as reduction in body weight at 50 mg/kg, ip administered for 3 weeks relative to control; format: organism-based; conditions: in vivo, 504 h
HGC-27 [4] = experiment: Induction of apoptosis in human HGC-27 cells assessed as increase in cleaved caspase-9 expression at 2 to 16 uM by western blot analysis; format: functional, cell-based; conditions: dose 2-16 µM, DDE = dose-dependent effect
MGC-803 [5] = experiment: Induction of apoptosis in human MGC-803 cells assessed as increase in cleaved caspase-9 expression at 1.25 to 10 uM by western blot analysis; format: functional, cell-based; conditions: dose 1.25-10 µM, DDE = dose-dependent effect
[6] = AUC(0 to t) in Sprague-Dawley rat at 50 mg/kg, ip measured upto 24 hrs by LC-MS analysis; format: ADME, organism-based; set-up: time < 24 hrs, dose 50 mg/kg, route ip; conditions: in vivo
HGC-27 [7] = experiment: Induction of apoptosis in human HGC-27 cells assessed as reduction in BCl2 expression at 2 to 16 uM by western blot analysis; format: functional, cell-based; conditions: dose 2-16 µM, DDE = dose-dependent effect
MGC-803 [8] = experiment: Induction of apoptosis in human MGC-803 cells assessed as increase in twin-kiling cell nuclei at 1.25 to 10 uM by Hoechst 33342 staining based fluorescent microscopic analysis; format: functional; conditions: dose 1.25-10 µM
MGC-803 [9] = experiment: Induction of apoptosis in human MGC-803 cells assessed as reduction in BCl2 expression at 1.25 to 10 uM by western blot analysis; format: functional, cell-based; conditions: dose 1.25-10 µM, DDE = dose-dependent effect
GES1 = experiment: Antiproliferative activity against human GES1 cells assessed as reduction in cell viability after 24 hrs by MTT assay; format: functional, cell-based; conditions: GES1, 24 h
MGC-803 [10] = experiment: Inhibition of PI3K/AKT/mTOR signalling pathway in human MGC-803 cells assessed as reduction in PI3K phosphorylation at 1.25 to 10 uM by western blot analysis; format: cell-based; conditions: dose 1.25-10 µM, DDE = dose-dependent effect
MGC-803 [11] = experiment: Antitumor activity against human MGC-803 cells xenografted in immunodeficient nude mouse assessed as reduction in tumor growth at 50 mg/kg, ip administered for 3 weeks relative to control; format: functional; conditions: MGC-803, 504 h, read-out: TGI
HGC-27 [12] = experiment: Induction of apoptosis in human HGC-27 cells assessed as decrease in cytochrome C expression at 2 to 16 uM by western blot analysis; format: functional, cell-based; conditions: dose 2-16 µM, DDE = dose-dependent effect
MGC-803 [13] = experiment: Antitumor activity against human MGC-803 cells xenografted in immunodeficient nude mouse assessed as increase in survival at 50 mg/kg, ip administered for 3 weeks; format: functional, organism-based
HGC-27 [14] = experiment: Inhibition of DNA topoisomerase 1 in human HGC-27 cells assessed as relaxation of supercoiled plasmid pBR322 DNA at 15 to 30 uM incubated for 30 mins by agarose gel electrophoresis; format: cell-based; conditions: dose 15-30 µM
MGC-803 [15] = experiment: Inhibition of colony formation in human MGC-803 cells at 0.5 to 4 uM after 7 to 10 days by crystal violet staining based assay; format: functional, cell-based; conditions: dose 0.5-4 µM, time 7-10 day, DDE = dose-dependent effect
HGC-27 [16] = experiment: Inhibition of cell invasion in human HGC-27 cells assessed as reduction in invasion at 1 to 8 uM for 24 hrs by transwell invasion assay; format: functional, cell-based; conditions: dose 1-8 µM, DDE = dose-dependent effect
MGC-803 [17] = experiment: Inhibition of cell migration in human MGC-803 cells assessed as reduction in migration at 0.5 to 4 uM for 24 hrs by transwell migration assay; format: functional, cell-based; conditions: dose 0.5-4 µM, DDE = dose-dependent effect

## Oc1c(Cc2nccc3cc4c(cc23)OCO4)ccc2c1OCO2
MGC-803 [1]
  Activity: Dde
HGC-27 [2]
  Activity: Dde
[3]
  Activity: Non-Toxic
HGC-27 [4]
  Activity: Dde
MGC-803 [5]
  Activity: Dde
[6]
  AUC(0-t) at 24 h: 29500 ng·h/mL
HGC-27 [7]
  Activity: Dde
MGC-803 [8]
  Activity: 29.5%
MGC-803 [8]; DDE = dose-dependent effect
  Activity: Dde
MGC-803 [9]
  Activity: Dde
GES1
  IC50: 98.4 µM
MGC-803 [10]
  inhibition: Dde
MGC-803 [11]
  inhibition in vivo at 50 mg/kg: 63.8%
HGC-27 [12]
  Activity: Dde
MGC-803 [13]
  Activity: Active
HGC-27 [14]
  inhibition: Active
MGC-803 [15]
  inhibition: Dde
HGC-27 [16]
  inhibition: Dde
MGC-803 [17]
  inhibition: Dde
